Measured values: patent US20160046579A1, “THERAPEUTIC COMPOUNDS AND COMPOSITIONS” (AGIOS PHARMACEUTICALS, INC., priority 2013, published 2016)

Columns and labels:
PKR R532W = PKR R532W (Homo sapiens, UniProt P30613, R532W); assay: PKR Mutant Assay, dose response (AC50), PKR R532W; format: biochemical; settings: PKR R532W mutant enzyme
Protocol: (§1) • PKR or PKR mutant enzyme solution was diluted in assay buffer. • 2 μL of test compound was added into wells first, and then 180 μL reaction mix was added. • Reactions mixture with test compound was assembled except for ADP, and plates were stored for 60 minutes at room temperature. • 20 uL ADP was added to start reaction at room temperature and reaction progress was measured as changes in absorbance at 340 nm wavelength at room temperature.
(§2) Test Compound Preparation: • Test compound stock was made at 100× concentration in 100% DMSO (10 mM) • 1 to 3 dilutions were made for 11 points (i.e. 50 μl of first concentration added to 100 μl 100% DMSO to yield 3.33 mM, 50 μl of this added to 100 μl DMSO to yield 1.11 mM, and so forth) • 1 to 100 dilution into assay (2 μl in 200 μl) yielded starting concentration of 100 μM, decreasing 3 fold for 11 points.

wt PKR [1] = target: T1, wt PKR (Homo sapiens, UniProt P30613); assay: PKR Mutant Assay, dose response (AC50), wild type PKR enzyme; format: biochemical; settings: wild type PKR enzyme
T1 sequence (P30613 whole entry): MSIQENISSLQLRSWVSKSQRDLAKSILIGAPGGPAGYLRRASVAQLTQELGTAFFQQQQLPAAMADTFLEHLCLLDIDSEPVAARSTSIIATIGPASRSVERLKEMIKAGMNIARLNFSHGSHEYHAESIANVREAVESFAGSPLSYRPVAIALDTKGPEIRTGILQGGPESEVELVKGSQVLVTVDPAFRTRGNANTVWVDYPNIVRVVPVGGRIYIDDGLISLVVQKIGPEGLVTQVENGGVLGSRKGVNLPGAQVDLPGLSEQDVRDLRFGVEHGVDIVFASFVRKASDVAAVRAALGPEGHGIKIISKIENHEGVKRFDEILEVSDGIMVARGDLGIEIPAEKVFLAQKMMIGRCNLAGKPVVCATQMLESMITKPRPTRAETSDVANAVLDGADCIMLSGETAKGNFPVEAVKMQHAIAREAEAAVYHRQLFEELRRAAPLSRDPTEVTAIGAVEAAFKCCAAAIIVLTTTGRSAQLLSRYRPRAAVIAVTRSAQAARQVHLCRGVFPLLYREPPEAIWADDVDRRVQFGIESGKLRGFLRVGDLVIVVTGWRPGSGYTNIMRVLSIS
Protocol: as §1, §2

PKR R510Q = PKR R510Q (Homo sapiens, UniProt P30613, R510Q); assay: PKR Mutant Assay, dose response (AC50), PKR R510Q; format: biochemical; settings: PKR R510Q mutant enzyme
Chain of PKR R510Q (P30613 whole entry R510Q): as the sequence (P30613 whole entry) above, with R510Q counted along it
Protocol: as §1, §2

wt PKR [2] = target: T1, wt PKR; assay: wt PKR cell based assay

Chain of PKR R532W (P30613 whole entry R532W): as the sequence (P30613 whole entry) above, with R532W counted along it

AC50 (PKR R532W) [nM]	AC50 (wt PKR [1]) [nM]	AC50 (PKR R510Q) [nM]	AC50 (wt PKR [2]) [nM]	SMILES
101 to 1000	101 to 1000	101 to 1000	< 100	CC(C)CC1(OC(=O)OCOP(=O)(O)O)CCN(C(=O)c2ccc(NS(=O)(=O)c3cccc4nccnc34)cc2)CC1 [Compound 527, 4-isobutyl-1-(4-(quinoxaline-5-sulfonamido)benzoyl)piperidin-4-yl phosphonooxymethyl carbonate]
101 to 1000	101 to 1000	1010 to 10000	101 to 1000	O=C(c1ccc(NS(=O)(=O)c2cccc3nccnc23)cc1)N1CCC(O)(Cc2cc[nH]n2)CC1 [Compound 500, N-(4-(4-((1H-pyrazol-3-yl)methyl)-4-hydroxypiperidine-1-carbonyl)phenyl)quinoxaline-5-sulfonamide]
101 to 1000	101 to 1000	101 to 1000	101 to 1000	O=C(c1ccc(NS(=O)(=O)c2cccc3nccnc23)cc1)N1CCC(O)(C2CCC(O)CC2)CC1 (centres unmarked) [Compound 502, N-(4-(4-hydroxy-4-(4-hydroxycyclohexyl)piperidine-1-carbonyl)phenyl)quinoxaline-5-sulfonamide]
< 100	< 100	101 to 1000	101 to 1000	Cc1n[nH]c(C)c1CC1(O)CCN(C(=O)c2ccc(NS(=O)(=O)c3cccc4nccnc34)cc2)CC1 [Compound 512, N-(4-(4-((3,5-dimethyl-1H-pyrazol-4-yl)methyl)-4-hydroxypiperidine-1-carbonyl)phenyl)quinoxaline-5-sulfonamide]
101 to 1000	101 to 1000	101 to 1000	< 100	CC(C)CC1(OC(=O)OCOP(=O)(O)O)CCN(C(=O)c2ccc(NS(=O)(=O)c3cccc4scnc34)cc2)CC1 [Compound 526]
< 100	< 100	101 to 1000	< 100	CC(C)CC1(O)CCN(C(=O)c2ccc(NS(=O)(=O)c3cncc4cccnc34)cc2)CC1 [Compound 513, N-(4-(4-hydroxy-4-isobutylpiperidine-1-carbonyl)phenyl)-1,6-naphthyridine-8-sulfonamide]

The remaining lines, values behind:

SMILES	AC50 (PKR R532W) [nM]	AC50 (wt PKR [1]) [nM]	AC50 (PKR R510Q) [nM]	AC50 (wt PKR [2]) [nM]
O=C(c1ccc(NS(=O)(=O)c2cccc3scnc23)cc1)N1CCC(O)(c2scnc2Cl)CC1 [Compound 480, N-(4-(4-(4-chlorothiazol-5-yl)-4-hydroxypiperidine-1-carbonyl)phenyl)benzo[d]thiazole-4-sulfonamide]	< 100	< 100	101 to 1000	101 to 1000
O=C(c1ccc(NS(=O)(=O)c2cccc3scnc23)cc1)N1CCC(O)(Cc2cn[nH]c2)CC1 [Compound 498, N-(4-(4-((1H-pyrazol-4-yl)methyl)-4-hydroxypiperidine-1-carbonyl)phenyl)benzo[d]thiazole-4-sulfonamide]	< 100	< 100	101 to 1000	101 to 1000
CC(F)(F)CCC1(O)CCN(C(=O)c2ccc(NS(=O)(=O)c3cccc4scnc34)cc2F)CC1 [Compound 469, N-(4-(4-(3,3-difluorobutyl)-4-hydroxypiperidine-1-carbonyl)-3-fluorophenyl)benzo[d]thiazole-4-sulfonamide]	101 to 1000	101 to 1000	101 to 1000	1010 to 10000
Nc1cnc2c(S(=O)(=O)Nc3ccc(C(=O)N4CCC(O)(c5cccc(F)c5F)CC4)cc3)cccc2n1 [Compound 493, 2-amino-N-(4-(4-(2,3-difluorophenyl)-4-hydroxypiperidine-1-carbonyl)phenyl)quinoxaline-5-sulfonamide]	< 100	< 100	< 100	< 100
CC(F)(F)CCC1(O)CCN(C(=O)c2ccc(NS(=O)(=O)c3cccc4nccnc34)cc2F)CC1 [Compound 478, N-(4-(4-(3,3-difluorobutyl)-4-hydroxypiperidine-1-carbonyl)-3-fluorophenyl)quinoxaline-5-sulfonamide]	101 to 1000	101 to 1000	101 to 1000	101 to 1000
